In one test the target is D2 receptor (Homo sapiens, UniProt P14416). In words: [3H]Thymidine uptake assay for D2 intrinsic activity. Format: cell-based. As to conditions: Table 1; test compound 1 μM; 1 μM Quinpirole = 100% intrinsic activity.
D2 receptor, sequence (P14416 whole entry): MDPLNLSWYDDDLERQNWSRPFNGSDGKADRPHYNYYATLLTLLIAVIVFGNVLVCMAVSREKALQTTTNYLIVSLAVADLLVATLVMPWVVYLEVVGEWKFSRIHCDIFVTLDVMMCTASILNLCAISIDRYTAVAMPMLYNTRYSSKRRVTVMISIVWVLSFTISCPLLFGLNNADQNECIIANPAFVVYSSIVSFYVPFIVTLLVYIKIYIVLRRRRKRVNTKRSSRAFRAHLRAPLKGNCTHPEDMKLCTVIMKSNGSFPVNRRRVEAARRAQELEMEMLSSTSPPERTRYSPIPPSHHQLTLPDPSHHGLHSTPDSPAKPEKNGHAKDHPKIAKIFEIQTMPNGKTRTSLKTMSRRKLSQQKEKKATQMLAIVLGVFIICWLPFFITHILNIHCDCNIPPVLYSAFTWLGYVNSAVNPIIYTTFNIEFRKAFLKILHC
In general, Emax refers to the maximal effect, on the per cent scale that the assay sets. Compound `O=c1ccc2ccc(OCCCCN3CCN(c4cccc(C(F)(F)F)c4Cl)CC3)nc2[nH]1` [Example B2, 7-{4-[4-(2-Chloro-3-trifluoromethyl-phenyl)-piperazin-1-yl]-butoxy}-1H-[1,8]naphthyridin-2-one] registered a maximal response (Emax) at 1 µM of 22%.

`CC(=O)c1c(Cl)cccc1N1CCN(CCCCOc2ccc3ccc(=O)[nH]c3n2)CC1` [Example B3, 7-{4-[4-(2-Acetyl-3-chloro-phenyl)-piperazin-1-yl]-butoxy}-1H-[1,8]naphthyridin-2-one]: the Emax at 1 µM is 8%.

`CCc1c(Cl)cccc1N1CCN(CCCCOc2ccc3ccc(=O)[nH]c3n2)CC1` [Example B4, 7-{4-[4-(3-Chloro-2-ethyl-phenyl)-piperazin-1-yl]-butoxy}-1H-[1,8]naphthyridin-2-one] yielded an Emax at 1 µM of 22%.

On to `CC(=O)c1c(F)cccc1N1CCN(CCCCOc2ccc3ccc(=O)[nH]c3n2)CC1` [Example B5, 7-{4-[4-(2-Acetyl-3-fluoro-phenyl)-piperazin-1-yl]-butoxy}-1H-[1,8]naphthyridin-2-one], for which the Emax at 1 µM was found to be 2%.

Compound `Cc1cc(N2CCN(CCCCOc3ccc4ccc(=O)[nH]c4n3)CC2)c(Cl)cc1F` [Example B7, 7-{4-[4-(2-Chloro-4-fluoro-5-methyl-phenyl)-piperazin-1-yl]-butoxy}-1H-[1,8]naphthyridin-2-one] returned a maximal effect (Emax) at 1 µM of 28%.

In turn, `Cc1c(F)ccc(N2CCN(CCCCOc3ccc4ccc(=O)[nH]c4n3)CC2)c1Cl` [Example B8, 7-{4-[4-(2-Chloro-4-fluoro-3-methyl-phenyl)-piperazin-1-yl]-butoxy}-1H-[1,8]naphthyridin-2-one] had an Emax at 1 µM of 17%.

For `CC(C)Oc1ccc(Cl)cc1N1CCN(CCCCOc2ccc3ccc(=O)[nH]c3n2)CC1` [Example B9, 7-{4-[4-(5-Chloro-2-isopropoxy-phenyl)-piperazin-1-yl]-butoxy}-1H-[1,8]naphthyridin-2-one], the maximal effect (Emax) at 1 µM amounted to 23%.

In the case of `CC(C)Oc1ccccc1N1CCN(CCCCOc2ccc3ccc(=O)[nH]c3n2)CC1` [Example B10, 7-{4-[4-(2-Isopropoxy-phenyl)-piperazin-1-yl]-butoxy}-1H-[1,8]naphthyridin-2-one], the maximal effect (Emax) at 1 µM was 34%.

The compound `CC(C)COc1ccccc1N1CCN(CCCCOc2ccc3ccc(=O)[nH]c3n2)CC1` [Example B11, 7-{4-[4-(2-Isobutoxy-phenyl)-piperazin-1-yl]-butoxy}-1H-[1,8]naphthyridin-2-one] came in with a maximum response (Emax) at 1 µM of 31%.

Take `O=c1ccc2ccc(OCCCCN3CCN(c4ccc(F)cc4)CC3)nc2[nH]1` [Example B13, 7-{4-[4-(4-Fluoro-phenyl)-piperazin-1-yl]-butoxy}-1H-[1,8]naphthyridin-2-one]: the Emax at 1 µM was determined as 45%.

For `O=c1ccc2ccc(OCCCCN3CCN(c4ccc(F)c(Cl)c4)CC3)nc2[nH]1` [Example B14, 7-{4-[4-(3-Chloro-4-fluoro-phenyl)-piperazin-1-yl]-butoxy}-1H-[1,8]naphthyridin-2-one], the maximum response (Emax) at 1 µM worked out at 37%.

The compound `O=c1ccc2ccc(OCCCCN3CCN(c4cccc(C(F)(F)F)c4)CC3)nc2[nH]1` [Example B15, 7-{4-[4-(3-Trifluoromethyl-phenyl)-piperazin-1-yl]-butoxy}-1H-[1,8]naphthyridin-2-one] returned an Emax at 1 µM of 17%.

Consider `O=c1ccc2ccc(OCCCCN3CCN(c4ccccc4C(F)(F)F)CC3)nc2[nH]1` [Example B16, 7-{4-[4-(2-Trifluoromethyl-phenyl)-piperazin-1-yl]-butoxy}-1H-[1,8]naphthyridin-2-one], for which the Emax at 1 µM was found to be 41%.

`CC(F)(F)c1ccccc1N1CCN(CCCCOc2ccc3ccc(=O)[nH]c3n2)CC1` [Example B17, 7-(4-{4-[2-(1,1-Difluoro-ethyl)-phenyl]-piperazin-1-yl}-butoxy)-1H-[1,8]naphthyridin-2-one] registered a maximal effect (Emax) at 1 µM of 43%.

Still in this test, the particulars now being: Table 2; test compound 1 μM; 1 μM Quinpirole = 100% intrinsic activity.
In turn, `CC1(C)C=Cc2cccc(N3CCN(CCCCOc4ccc5ccc(=O)[nH]c5n4)CC3)c2O1` [Example B2′, 7-{4-[4-(2,2-Dimethyl-2H-chromen-8-yl)-piperazin-1-yl]-butoxy}-1H-[1,8]naphthyridin-2-one] displayed an Emax at 1 µM of 33%.

`CC1(C)CCc2cccc(N3CCN(CCCCOc4ccc5ccc(=O)[nH]c5n4)CC3)c2O1` [Example B3′, 7-{4-[4-(2,2-Dimethyl-chroman-8-yl)-piperazin-1-yl]-butoxy}-1H-[1,8]naphthyridin-2-one]: the Emax at 1 µM was found to be 50%.

The compound `CC1C=Cc2cccc(N3CCN(CCCCOc4ccc5ccc(=O)[nH]c5n4)CC3)c2O1` (centres unmarked) [Example B4′, 7-{4-[4-(2-Methyl-2H-chromen-8-yl)-piperazin-1-yl]-butoxy}-1H-[1,8]naphthyridin-2-one] showed a maximal response (Emax) at 1 µM of 28%.

With `O=c1ccc2ccc(OCCCCN3CCN(c4cccc5c4OC4(C=C5)CCCC4)CC3)nc2[nH]1` [Example B6′, 7-{4-[4-(Spiro[chromene-2,1′-cyclopentan]-8-yl)-piperazin-1-yl]-butoxy}-1H-[1,8]naphthyridin-2-one], the Emax at 1 µM stood at 33%.

In turn, `O=c1ccc2ccc(OCCCCN3CCN(c4cccc5c4OC4(CCCC4)CC5)CC3)nc2[nH]1` [Example B7′, 7-{4-[4-(3,4-Dihydrospiro[chromene-2,1′-cyclopentan]-8-yl)-piperazin-1-yl]-butoxy}-1H-[1,8]naphthyridin-2-one] displayed an Emax at 1 µM of 48%.

`O=c1ccc2ccc(OCCCCN3CCN(c4cccc5c4OCC5)CC3)nc2[nH]1` [Example B8′, 7-{4-[4-(2,3-Dihydro-benzofuran-7-yl)-piperazin-1-yl]-butoxy}-1H-[1,8]naphthyridin-2-one] displayed an Emax at 1 µM of 21%.

Regarding `CC1(C)Cc2cccc(N3CCN(CCCCOc4ccc5ccc(=O)[nH]c5n4)CC3)c2O1` [Example B9′, 7-{4-[4-(2,2-Dimethyl-2,3-dihydro-benzofuran-7-yl)-piperazin-1-yl]-butoxy}-1H-[1,8]naphthyridin-2-one], the Emax at 1 µM turned out to be 40%.

In turn, `O=c1ccc2ccc(OCCCCN3CCN(c4cccc5c4CCCO5)CC3)nc2[nH]1` [Example B10′, 7-[4-(4-Chroman-5-yl-piperazin-1-yl)-butoxy]-1H-[1,8]naphthyridin-2-one] registered a maximum response (Emax) at 1 µM of 22%.

With `O=c1ccc2ccc(OCCCCN3CCN(c4cccc5c4CCO5)CC3)nc2[nH]1` [Example B11′, 7-{4-[4-(2,3-Dihydro-benzofuran-4-yl)-piperazin-1-yl]-butoxy}-1H-[1,8]naphthyridin-2-one], the Emax at 1 µM was found to be 21%.

Regarding `O=c1ccc2ccc(OCCCCN3CCN(c4cccc5c4OCCO5)CC3)nc2[nH]1` [Example B12′, 7-{4-[4-(2,3-Dihydro-benzo[1,4]dioxin-5-yl)-piperazin-1-yl]-butoxy}-1H-[1,8]naphthyridin-2-one], the Emax at 1 µM was determined as 24%.

In turn, `O=c1ccc2ccc(OCCCCN3CCN(c4cccc5c4OC(F)(F)O5)CC3)nc2[nH]1` [Example B13′, 7-{4-[4-(2,2-Difluoro-benzo[1,3]dioxol-4-yl)-piperazin-1-yl]-butoxy}-1H-[1,8]naphthyridin-2-one] came in with a maximum response (Emax) at 1 µM of 33%.

In turn, `CC1(C)COc2c(cccc2N2CCN(CCCCOc3ccc4ccc(=O)[nH]c4n3)CC2)C1=O` [Example B16′, 7-{4-[4-(3,3-Dimethyl-4-oxo-chroman-8-yl)-piperazin-1-yl]-butoxy}-1H-[1,8]naphthyridin-2-one] had an Emax at 1 µM of 4%.

The record behind these values is patent US7160888B2, “[1,8]naphthyridin-2-ones and related compounds for the treatment of schizophrenia” (Warner Lambert Company LLC, priority 2003, dated 2007).
